Source: ChEMBL document CHEMBL4190315, “Novel cinnamamide-dibenzylamine hybrids: Potent neurogenic agents with antioxidant, cholinergic, and neuroprotective properties as innovative drugs for Alzheimer's disease” (Eur J Med Chem, 2017)
The source made the active and inactive calls. No cut-off for these calls is given here.

Tests used:
Acetylcholinesterase [1] = target: Acetylcholinesterase (Electrophorus electricus, UniProt O42275); assay: Inhibition of electric eel AChE using acetylthiocholine iodide as substrate preincubated for 5 mins followed by substrate addition measured up to 180 secs by spectrophotometric analysis
Chain of Acetylcholinesterase (Electrophorus electricus, UniProt O42275) (O42275 whole entry): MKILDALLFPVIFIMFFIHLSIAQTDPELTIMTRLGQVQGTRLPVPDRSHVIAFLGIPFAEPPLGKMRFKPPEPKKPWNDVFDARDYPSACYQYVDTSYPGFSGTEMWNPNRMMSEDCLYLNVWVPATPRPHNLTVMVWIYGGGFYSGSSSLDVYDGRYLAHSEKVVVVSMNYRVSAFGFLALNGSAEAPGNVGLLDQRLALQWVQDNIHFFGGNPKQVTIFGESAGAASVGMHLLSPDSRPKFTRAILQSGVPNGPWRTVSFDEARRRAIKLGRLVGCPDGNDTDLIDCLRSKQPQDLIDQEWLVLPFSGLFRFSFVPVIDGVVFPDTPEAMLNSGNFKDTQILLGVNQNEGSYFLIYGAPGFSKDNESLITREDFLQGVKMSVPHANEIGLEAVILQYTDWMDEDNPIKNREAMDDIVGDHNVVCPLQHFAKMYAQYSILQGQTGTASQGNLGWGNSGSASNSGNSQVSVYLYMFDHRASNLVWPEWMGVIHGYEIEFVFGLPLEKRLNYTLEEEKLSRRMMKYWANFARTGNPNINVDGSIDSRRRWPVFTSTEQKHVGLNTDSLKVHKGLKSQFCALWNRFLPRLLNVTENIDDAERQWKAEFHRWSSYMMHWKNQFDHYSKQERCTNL

Cholinesterase [2] = target: Cholinesterase (Equus caballus, UniProt P81908); assay: Inhibition of equine serum BChE using S-butyrylthiocholine iodide as substrate preincubated for 5 mins followed by substrate addition measured up to 180 secs by spectrophotometric analysis
Chain of Cholinesterase (Equus caballus, UniProt P81908) (P81908 whole entry): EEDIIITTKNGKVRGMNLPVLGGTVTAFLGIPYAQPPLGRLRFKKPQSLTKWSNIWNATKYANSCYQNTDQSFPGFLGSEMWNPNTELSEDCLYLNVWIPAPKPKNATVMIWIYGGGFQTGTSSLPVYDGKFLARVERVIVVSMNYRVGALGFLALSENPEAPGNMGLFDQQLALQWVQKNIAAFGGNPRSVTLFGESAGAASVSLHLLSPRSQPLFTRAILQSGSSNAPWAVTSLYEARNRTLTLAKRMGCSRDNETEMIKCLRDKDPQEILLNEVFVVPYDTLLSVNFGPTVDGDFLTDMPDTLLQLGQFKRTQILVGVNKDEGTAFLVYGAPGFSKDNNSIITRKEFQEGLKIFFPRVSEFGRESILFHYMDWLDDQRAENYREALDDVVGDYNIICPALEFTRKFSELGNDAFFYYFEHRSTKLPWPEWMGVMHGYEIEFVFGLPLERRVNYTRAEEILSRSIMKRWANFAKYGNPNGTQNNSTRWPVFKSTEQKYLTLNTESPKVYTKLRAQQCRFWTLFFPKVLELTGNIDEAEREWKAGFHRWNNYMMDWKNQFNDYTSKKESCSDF

[3] = Selectivity index, ratio of IC50 for equine serum BChE to IC50 for electric eel AChE
Acetylcholinesterase [4] = target: T1, Acetylcholinesterase (Homo sapiens, UniProt P22303); assay: Inhibition of human erythrocytic AChE using acetylthiocholine iodide as substrate preincubated for 5 mins followed by substrate addition measured up to 180 secs by spectrophotometric analysis
T1 sequence (P22303 whole entry): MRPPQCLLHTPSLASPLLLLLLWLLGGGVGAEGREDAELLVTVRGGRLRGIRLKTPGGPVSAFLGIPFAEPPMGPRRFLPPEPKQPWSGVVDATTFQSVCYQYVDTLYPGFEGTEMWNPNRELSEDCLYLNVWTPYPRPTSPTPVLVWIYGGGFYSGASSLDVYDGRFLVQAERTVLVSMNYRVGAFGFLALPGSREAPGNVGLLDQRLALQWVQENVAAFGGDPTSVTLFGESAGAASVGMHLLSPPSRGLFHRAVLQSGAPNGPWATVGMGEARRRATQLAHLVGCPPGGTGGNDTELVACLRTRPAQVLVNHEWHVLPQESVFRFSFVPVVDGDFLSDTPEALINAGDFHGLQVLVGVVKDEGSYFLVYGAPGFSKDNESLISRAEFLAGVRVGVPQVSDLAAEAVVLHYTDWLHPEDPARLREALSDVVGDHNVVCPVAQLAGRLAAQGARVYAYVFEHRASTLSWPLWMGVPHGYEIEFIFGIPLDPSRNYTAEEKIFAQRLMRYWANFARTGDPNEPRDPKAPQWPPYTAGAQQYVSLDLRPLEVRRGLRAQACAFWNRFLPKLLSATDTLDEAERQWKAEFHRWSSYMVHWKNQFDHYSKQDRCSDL

Cholinesterase [5] = target: Cholinesterase (Homo sapiens, UniProt P06276); assay: Inhibition of human serum BChE using S-butyrylthiocholine iodide as substrate preincubated for 5 mins followed by substrate addition measured up to 180 secs by spectrophotometric analysis
Chain of Cholinesterase (Homo sapiens, UniProt P06276) (P06276 whole entry): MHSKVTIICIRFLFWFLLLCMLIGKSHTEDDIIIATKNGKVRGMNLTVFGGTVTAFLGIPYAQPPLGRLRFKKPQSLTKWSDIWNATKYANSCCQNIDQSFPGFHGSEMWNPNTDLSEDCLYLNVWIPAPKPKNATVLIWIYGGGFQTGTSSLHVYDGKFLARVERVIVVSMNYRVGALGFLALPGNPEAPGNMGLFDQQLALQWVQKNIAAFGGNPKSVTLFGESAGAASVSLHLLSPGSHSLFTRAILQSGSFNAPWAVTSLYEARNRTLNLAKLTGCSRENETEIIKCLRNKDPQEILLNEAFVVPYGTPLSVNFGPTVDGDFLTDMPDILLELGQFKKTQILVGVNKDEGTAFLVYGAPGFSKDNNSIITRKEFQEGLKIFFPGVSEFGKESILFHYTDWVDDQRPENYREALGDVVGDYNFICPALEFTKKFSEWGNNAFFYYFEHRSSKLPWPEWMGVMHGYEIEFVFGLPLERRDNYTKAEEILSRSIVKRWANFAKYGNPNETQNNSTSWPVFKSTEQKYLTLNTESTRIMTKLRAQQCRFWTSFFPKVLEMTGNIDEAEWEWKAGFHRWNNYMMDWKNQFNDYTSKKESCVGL

[6] = Antioxidant activity assessed as inhibition of AAPH-induced peroxyl radical generation measured as trolox equivalent preincubated for 15 mins followed by AAPH addition measured every min for 120 mins by ORAC-FL assay; format: functional
[7] = target: Amyloid-beta precursor protein (Homo sapiens) (UniProt P05067); assay: Inhibition of HFIP pretreated amyloid beta (1 to 42) (unknown origin) self-aggregation at 20 uM after 48 hrs by thioflavin T fluorescence assay relative to control
Chain of Amyloid-beta precursor protein (Homo sapiens) (P05067 whole entry): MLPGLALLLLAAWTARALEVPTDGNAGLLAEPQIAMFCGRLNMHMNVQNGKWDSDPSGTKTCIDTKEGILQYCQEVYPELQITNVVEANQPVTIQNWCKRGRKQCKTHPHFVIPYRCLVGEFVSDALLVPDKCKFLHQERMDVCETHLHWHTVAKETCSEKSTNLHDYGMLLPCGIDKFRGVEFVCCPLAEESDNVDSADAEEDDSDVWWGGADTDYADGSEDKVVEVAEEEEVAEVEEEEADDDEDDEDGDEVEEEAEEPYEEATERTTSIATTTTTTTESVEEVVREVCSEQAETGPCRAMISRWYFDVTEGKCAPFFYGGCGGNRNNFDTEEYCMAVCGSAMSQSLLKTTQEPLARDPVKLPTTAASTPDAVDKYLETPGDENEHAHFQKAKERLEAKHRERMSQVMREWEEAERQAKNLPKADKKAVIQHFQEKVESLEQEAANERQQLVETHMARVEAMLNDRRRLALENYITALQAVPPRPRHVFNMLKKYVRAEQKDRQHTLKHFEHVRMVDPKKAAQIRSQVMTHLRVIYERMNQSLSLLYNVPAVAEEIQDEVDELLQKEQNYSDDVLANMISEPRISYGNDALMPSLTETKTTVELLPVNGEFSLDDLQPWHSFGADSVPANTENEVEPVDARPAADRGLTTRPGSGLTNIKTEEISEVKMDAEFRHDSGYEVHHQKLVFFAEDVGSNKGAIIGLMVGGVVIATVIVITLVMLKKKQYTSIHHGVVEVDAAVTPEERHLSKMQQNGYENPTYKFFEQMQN

PC-12 [8] = assay: Cytotoxicity against rat PC12 cells at 1.25 to 50 uM after 24 hrs by MTT assay; format: cell-based; conditions: pc-12, 24 h
PC-12 [9] = assay: Neuroprotective activity against H2O2-induced oxidative damage in rat PC12 cells assessed as increase in cell viability at 1.25 to 25 uM preincubated for 2 hrs followed by H2O2 challenge measured after 24 hrs by MTT assay; format: functional, cell-based
[10] = Effective permeability of compound at 50 ug/mL after 16 hrs by PAMPA-BBB assay
PC-12 [11] = assay: Neuroprotective activity against H2O2-induced oxidative damage in rat PC12 cells assessed as increase in cell viability at 25 uM preincubated for 2 hrs followed by H2O2 challenge measured after 24 hrs by MTT assay; format: functional, cell-based
Acetylcholinesterase [12] = target: T1, Acetylcholinesterase; assay: Mixed-type inhibition of AChE (unknown origin) at 2.25 to 9 uM using acetylthiocholine iodide as substrate preincubated for 5 mins followed by substrate addition measured up to 180 secs by Lineweaver-Burk plot analysis
[13] = Inhibition of Cu2+-mediated aggregation of amyloid beta (1 to 42) (unknown origin) at 50 uM after 24 hrs by thioflavin T fluorescence assay relative to control
[14] = Inhibition of Cu2+-mediated aggregation of amyloid beta (1 to 42) (unknown origin) assessed as reduction in fibril formation at 50 uM after 24 hrs by transmission electron microscopic analysis
[15] = Copper-chelating activity assessed as red shift by measuring maximum absorption at 25 uM after 30 mins by UV-vis spectrophotometric method (reference value: 230 nanometer)
[16] = Copper-chelating activity assessed as minimum absorption at 25 uM after 30 mins by UV-vis spectrophotometric method (reference value: 260 nanometer)
[17] = Metal chelating activity assessed as Zn2+-compound complex formation at 25 uM after 30 mins by UV-vis spectrophotometric method
[18] = Metal chelating activity assessed as Fe3+-compound complex formation at 25 uM after 30 mins by UV-vis spectrophotometric method
[19] = Metal chelating activity assessed as Fe2+-compound complex formation at 25 uM after 30 mins by UV-vis spectrophotometric method
Mus musculus [20] = assay: Reversal of scopolamine-induced memory impairment in Kunming mouse assessed as increase in step-down latency time at 5 to 15 mg/kg, po administered 60 mins prior to training trial followed by scopolamine challenge at 30 mins post dose measured 24 hrs after training trial by passive avoidance test; format: functional, organism-based
Mus musculus [21] = assay: Reversal of scopolamine-induced memory impairment in Kunming mouse assessed as increase in step-down latency time at 5 mg/kg, po administered 60 mins prior to training trial followed by scopolamine challenge at 30 mins post dose measured 24 hrs after training trial by passive avoidance test; format: functional, organism-based
[22] = Metal chelating activity assessed as mole fraction of compound required to show 1:2 stoichiometry for Cu2+-compound complex at 25 uM after 30 mins by Job's plot analysis
[23] = target: Acetylcholinesterase (Electrophorus electricus) (UniProt O42275); assay: Inhibition of electric eel AChE at 0.001 to 100 uM using acetylthiocholine iodide as substrate preincubated for 5 mins followed by substrate addition measured up to 180 secs by spectrophotometric analysis relative to control
Chain of Acetylcholinesterase (Electrophorus electricus) (O42275 24-633 limits assumed): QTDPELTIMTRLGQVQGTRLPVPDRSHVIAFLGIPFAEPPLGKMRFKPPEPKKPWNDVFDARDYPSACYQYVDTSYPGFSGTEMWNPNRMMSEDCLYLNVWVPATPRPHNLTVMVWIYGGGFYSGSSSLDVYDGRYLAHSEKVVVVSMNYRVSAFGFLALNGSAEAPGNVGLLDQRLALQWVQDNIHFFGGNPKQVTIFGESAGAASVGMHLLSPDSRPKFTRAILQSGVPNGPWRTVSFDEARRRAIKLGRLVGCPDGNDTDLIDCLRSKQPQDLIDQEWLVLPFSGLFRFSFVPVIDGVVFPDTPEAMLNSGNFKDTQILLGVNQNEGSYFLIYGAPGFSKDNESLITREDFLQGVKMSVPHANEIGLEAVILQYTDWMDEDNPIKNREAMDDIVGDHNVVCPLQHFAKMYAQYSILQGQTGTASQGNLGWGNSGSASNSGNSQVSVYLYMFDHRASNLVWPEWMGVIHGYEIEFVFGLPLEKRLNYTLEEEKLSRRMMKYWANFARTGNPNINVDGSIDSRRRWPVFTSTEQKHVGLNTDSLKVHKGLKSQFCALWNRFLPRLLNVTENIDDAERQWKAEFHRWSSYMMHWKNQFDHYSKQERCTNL

[24] = target: Cholinesterase (Equus caballus) (UniProt P81908); assay: Inhibition of equine serum BChE at 0.001 to 100 uM using S-butyrylthiocholine iodide as substrate preincubated for 5 mins followed by substrate addition measured up to 180 secs by spectrophotometric analysis relative to control
Chain of Cholinesterase (Equus caballus) (P81908 whole entry): as the sequence (P81908 whole entry) above

Compound	IC50 (Acetylcholinesterase [1])	IC50 (Cholinesterase [2])	Ratio IC50 [3]	IC50 (Acetylcholinesterase [4])	IC50 (Cholinesterase [5])	Activity [6]	inhibition [7]	Papp at 16 h, 50 ug/mL [10]	also measured
CCN(Cc1ccccc1)Cc1ccc(NC(=O)Cc2ccc(O)cc2)cc1	3.82 µM	4.45 µM	1.16	6.5 µM	2.03 µM	1.35 equiv	42.1%	–	–
CCN(Cc1ccccc1)Cc1ccc(NC(=O)Cc2ccc(O)c(O)c2)cc1	3.63 µM	5.95 µM	1.54	7.26 µM	2.4 µM	3.25 equiv	42.1%	4.41 ×10⁻⁶ cm/s	Activity (PC-12 [8]): Non-Toxic; Activity (PC-12 [9]): Active
NCCc1ccc(O)c(O)c1 [DOPAMINE]	–	–	–	–	–	–	–	0.45 ×10⁻⁶ cm/s	–
CN(Cc1ccccc1)Cc1ccc(NC(=O)Cc2ccc(O)c(O)c2)cc1	1.68 µM	2.28 µM	1.36	4.63 µM	0.95 µM	3.26 equiv	40.5%	3.9 ×10⁻⁶ cm/s	Activity (PC-12 [8]): Non-Toxic; Activity (PC-12 [9]): Active
Clc1cccc(Cl)c1N=C1NCCN1 [CLONIDINE]	–	–	–	–	–	–	–	3.1 ×10⁻⁶ cm/s	–
CCN(Cc1ccccc1)Cc1ccc(NC(=O)Cc2ccc(OC)c(O)c2)cc1	1.89 µM	3.29 µM	1.76	2.76 µM	1.46 µM	1.48 equiv	43.5%	–	–
CN(Cc1ccccc1)Cc1ccc(NC(=O)/C=C/c2ccc(O)cc2)cc1	4.85 µM	9.5 µM	1.95	–	–	2.13 equiv	56.6%	–	–
COc1ccc2[nH]cc(CCNC(C)=O)c2c1	–	–	–	–	–	–	–	–	Activity (PC-12 [11]): Active
CN(Cc1ccccc1)Cc1ccc(NC(=O)/C=C/c2ccc(O)c(O)c2)cc1	4.64 µM	9.72 µM	2.1	5.42 µM	8.01 µM	4.24 equiv	56.2%	5.34 ×10⁻⁶ cm/s	inhibition (Acetylcholinesterase [12]): Active; inhibition [13]: 87.4%; inhibition [14]: Active; Activity [15]: 245 nm; Activity [16]: 274 nm; Activity [17]: Active; Activity [18]: Active; Activity [19]: inactive; Activity (PC-12 [8]): Non-Toxic; Activity (PC-12 [9]): Active; Activity (Mus musculus [20]): Active; Activity (Mus musculus [21]): Active; Activity (mole fraction) [22]: 0.67
CC(=O)[C@H]1CC[C@H]2[C@@H]3CCC4=CC(=O)CC[C@]4(C)[C@H]3CC[C@]12C [PROGESTERONE]	–	–	–	–	–	–	–	8.62 ×10⁻⁶ cm/s	–
CN(Cc1ccccc1)Cc1ccc(NC(=O)c2ccccc2)cc1	–	5.3 µM	–	–	–	0.36 equiv	35.2%	–	inhibition [23]: 38%
COc1ccc(CC(=O)Nc2ccc(CN(C)Cc3ccccc3)cc2)cc1OC	1.06 µM	1.48 µM	1.4	1.85 µM	1.05 µM	0.5 equiv	38.5%	–	–
CN1C(C(=O)Nc2ccccn2)=C(O)c2ccccc2S1(=O)=O [PIROXICAM]	–	–	–	–	–	–	–	3.29 ×10⁻⁶ cm/s	–
CCN(Cc1ccccc1)Cc1ccc(NC(=O)Cc2ccc(OC)c(OC)c2)cc1	1.55 µM	3.3 µM	2.13	3.22 µM	1.21 µM	0.48 equiv	40.6%	–	–
COc1cc(/C=C/C(=O)O)ccc1O	–	–	–	–	–	2.56 equiv	–	–	–
COc1cc(/C=C/C(=O)Nc2ccc(CN(C)Cc3ccccc3)cc2)ccc1O	3.99 µM	8.78 µM	2.2	8.32 µM	5.12 µM	2.86 equiv	56.8%	6.21 ×10⁻⁶ cm/s	Activity (PC-12 [8]): Non-Toxic; Activity (PC-12 [9]): Active

Compound	IC50 (Acetylcholinesterase [1])	IC50 (Cholinesterase [2])	Ratio IC50 [3]	IC50 (Acetylcholinesterase [4])	IC50 (Cholinesterase [5])	Activity [6]	inhibition [7]	Papp at 16 h, 50 ug/mL [10]	also measured
CCN(CC)CCCC(C)Nc1ccnc2cc(Cl)ccc12 (stereo not drawn)	–	–	–	–	–	–	–	–	inhibition [13]: 48.8%
Cc1c(C)c2c(c(C)c1O)CCC(C)(C(=O)O)O2 (stereo not drawn)	–	–	–	–	–	–	–	–	Activity (PC-12 [11]): Active
CCN(Cc1ccccc1)Cc1ccc(NC(=O)c2ccccc2)cc1	–	13.9 µM	–	–	–	0.32 equiv	37.1%	–	inhibition [23]: 33%
CCN(Cc1ccccc1)Cc1ccc(NC(=O)Cc2ccccc2)cc1	6.63 µM	13.9 µM	1.5	–	–	0.26 equiv	38.1%	–	–
CN(Cc1ccccc1)Cc1ccc(NC(=O)CCc2ccccc2)cc1	–	5.29 µM	–	–	–	0.3 equiv	35.2%	–	inhibition [23]: 45%
COc1ccc(CC(=O)Nc2ccc(CN(C)Cc3ccccc3)cc2)cc1O	1.05 µM	2.4 µM	2.29	3.04 µM	1.29 µM	1.5 equiv	42.5%	4.37 ×10⁻⁶ cm/s	Activity (PC-12 [8]): Non-Toxic; Activity (PC-12 [9]): Active
CN(Cc1ccccc1)Cc1ccc(NC(=O)/C=C/c2ccccc2)cc1	5.27 µM	8.21 µM	1.55	–	–	1.1 equiv	56.8%	–	–
COc1cc2cc(-c3ccc(CN(C)Cc4ccccc4)cc3)c(=O)oc2cc1OC	0.04 µM	12.4 µM	315	–	–	–	–	–	–
COc1ccc(/C=C/C(=O)Nc2ccc(CN(C)Cc3ccccc3)cc2)cc1OC	1.94 µM	3.72 µM	1.9	2.96 µM	1.56 µM	1.28 equiv	56.6%	7.56 ×10⁻⁶ cm/s	–
CN(Cc1ccccc1)Cc1ccc(NC(=O)/C=C/c2ccc(Cl)cc2)cc1	–	–	–	–	–	0.82 equiv	58.6%	–	inhibition [23]: 41%; inhibition [24]: 32%
CCN(Cc1ccccc1)Cc1ccc(NC(=O)CCc2ccccc2)cc1	–	13.9 µM	–	–	–	0.32 equiv	36.1%	–	inhibition [23]: 34%
CN(Cc1ccccc1)Cc1ccc(NC(=O)Cc2ccccc2)cc1	3.24 µM	5.28 µM	1.63	5.8 µM	4.95 µM	0.38 equiv	33.5%	–	–
COc1ccc(/C=C/C(=O)Nc2ccc(CN(C)Cc3ccccc3)cc2)cc1	3.72 µM	8.21 µM	2.2	4.56 µM	6.4 µM	1.34 equiv	57.8%	–	–
CN(Cc1ccccc1)Cc1ccc(NC(=O)Cc2ccc(O)cc2)cc1	2.26 µM	3.48 µM	2.12	3.24 µM	4.32 µM	1.38 equiv	38.5%	–	–
CN(Cc1ccccc1)Cc1ccc(NC(=O)/C=C/c2ccc([N+](=O)[O-])cc2)cc1	–	–	–	–	–	0.8 equiv	52.8%	–	inhibition [23]: 35%; inhibition [24]: 24%
